From PubChem BioAssay AID248 (DTP/NCI, 2004)
Where “and” joins values, the source holds several entries; their conditions need not be identical. Equal values may be shown once. Toxic doses and inconclusive results are not listed. No stated cut-off is given here; in the data, active means T/C of 150% or more; inactive means T/C below 125%.

System: L1210 leukemia ip in BDF1 mice, survival T/C
Assay: NCI In Vivo Anticancer Drug Screen. Data for tumor model L1210 Leukemia (intraperitoneal) in B6D2F1 (BDF1) mice
Conditions: endpoint: mean survival time, higher = longer survival
Summary of the method: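 In this screen, tumor-bearing mice given compound are compared to those given vehicle, and their survival values are reported as a treated-to-control quotient.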

[1] = dose: 100.0 mg/kg/injection, schedule: Q04DX002 (ip), vehicle: saline with Tween-80
[2] = dose: 200.0 mg/kg/injection, schedule: Q04DX002 (ip), vehicle: saline with Tween-80
[3] = dose: 100.0 mg/kg/injection, schedule: Q01DX009 (ip), vehicle: Klucel (hydroxypropylcellulose) (HPC)
[4] = dose: 100.0 mg/kg/injection, schedule: Q04DX003 (ip), vehicle: Klucel (hydroxypropylcellulose) (HPC)
[5] = dose: 200.0 mg/kg/injection, schedule: Q01DX009 (ip), vehicle: Klucel (hydroxypropylcellulose) (HPC)
[6] = dose: 200.0 mg/kg/injection, schedule: Q04DX003 (ip), vehicle: Klucel (hydroxypropylcellulose) (HPC)
[7] = dose: 400.0 mg/kg/injection, schedule: Q01DX009 (ip), vehicle: Klucel (hydroxypropylcellulose) (HPC)
[8] = dose: 100.0 mg/kg/injection, schedule: Q01DX001 (ip), vehicle: Klucel (hydroxypropylcellulose) (HPC)
[9] = dose: 100.0 mg/kg/injection, schedule: Q04DX003 (ip), vehicle: saline
[10] = dose: 200.0 mg/kg/injection, schedule: Q01DX001 (ip), vehicle: Klucel (hydroxypropylcellulose) (HPC)
[11] = dose: 200.0 mg/kg/injection, schedule: Q04DX003 (ip), vehicle: saline
[12] = dose: 400.0 mg/kg/injection, schedule: Q01DX001 (ip), vehicle: Klucel (hydroxypropylcellulose) (HPC)
[13] = dose: 400.0 mg/kg/injection, schedule: Q04DX003 (ip), vehicle: saline
[14] = dose: 400.0 mg/kg/injection, schedule: Q04DX003 (ip), vehicle: Klucel (hydroxypropylcellulose) (HPC)
[15] = dose: 100.0 mg/kg/injection, schedule: Q04DX002 (ip), vehicle: Klucel (hydroxypropylcellulose) (HPC)
[16] = dose: 100.0 mg/kg/injection, schedule: Q01DX009 (ip), vehicle: saline
[17] = dose: 200.0 mg/kg/injection, schedule: Q01DX009 (ip), vehicle: saline
[18] = dose: 75.0 mg/kg/injection, schedule: Q01DX001 (ip), vehicle: saline
[19] = dose: 100.0 mg/kg/injection, schedule: Q01DX001 (ip), vehicle: carboxymethylcellulose (CMC)
[20] = dose: 200.0 mg/kg/injection, schedule: Q01DX001 (ip), vehicle: carboxymethylcellulose (CMC)
[21] = dose: 400.0 mg/kg/injection, schedule: Q01DX001 (ip), vehicle: carboxymethylcellulose (CMC)
[22] = dose: 50.0 mg/kg/injection, schedule: Q01DX001 (ip), vehicle: carboxymethylcellulose (CMC)

Measured: T/C

CCCCCCC#CC(=O)OCCCC
inactive: [1] 93 % of control | [2] 93 % of control | dose: 400.0 mg/kg/injection, schedule: Q04DX002 (ip), vehicle: saline with Tween-80 90 % of control

CC1(C#N)CC(c2ccccc2)Nc2ccccc2N1 (stereo not drawn)
inactive: [3] 92 % of control | [4] 98 % of control | [5] 100 % of control | [6] 96 % of control | dose: 264.0 mg/kg/injection, schedule: Q04DX003 (ip), vehicle: Klucel (hydroxypropylcellulose) (HPC) 96 % of control and 97 % of control | [7] 97 % of control

CC(C)CC(NC(=O)OC(C)(C)C)C(=O)O (stereo not drawn)
inactive: dose: 100.0 mg/kg/injection, schedule: Q01DX001 (ip), vehicle: other 104 % of control | dose: 200.0 mg/kg/injection, schedule: Q01DX001 (ip), vehicle: other 93 % of control | dose: 400.0 mg/kg/injection, schedule: Q01DX001 (ip), vehicle: other 98 % of control

CC(C)Cc1c(N)nc(=S)[nH]c1C(=O)O
inactive: [8] 100 % of control | [9] 100 % of control | [10] 100 % of control | [11] 94 % of control | [12] 109 % of control | [13] 94 % of control

CN(C)c1ccc(NC(=O)NCCCl)cc1
inactive: [4] 106 % of control | [6] 103 % of control

CN(C)N=Nc1cc(Cl)cc(C(N)=O)c1Cl
inactive: dose: 100.0 mg/kg/injection, schedule: Q01DX001 (ip), vehicle: saline with Tween-80 106 % of control | dose: 100.0 mg/kg/injection, schedule: Q01DX009 (ip), vehicle: saline with Tween-80 103 % of control | dose: 200.0 mg/kg/injection, schedule: Q01DX001 (ip), vehicle: saline with Tween-80 101 % of control | dose: 200.0 mg/kg/injection, schedule: Q01DX009 (ip), vehicle: saline with Tween-80 121 % of control | dose: 400.0 mg/kg/injection, schedule: Q01DX001 (ip), vehicle: saline with Tween-80 119 % of control

CCOC(=O)c1[nH]c(-c2ccccc2)c(C(=O)OCC)c1-c1ccccc1
inactive: [4] 100 % of control | [6] 103 % of control | [14] 115 % of control

CCOC(=O)C1(C(=O)OCC)CCC(C(=O)OCC)(C(=O)OCC)CC1
inactive: [15] 101 % of control | dose: 200.0 mg/kg/injection, schedule: Q04DX002 (ip), vehicle: Klucel (hydroxypropylcellulose) (HPC) 101 % of control | dose: 400.0 mg/kg/injection, schedule: Q04DX002 (ip), vehicle: Klucel (hydroxypropylcellulose) (HPC) 101 % of control

OCC1CCN1C(c1ccccc1)c1ccccc1 (stereo not drawn)
inactive: [1] 93 % of control | [2] 86 % of control

NNC(=O)[C@H]1CC[C@H]1C(=O)NN
inactive: dose: 50.0 mg/kg/injection, schedule: Q01DX009 (ip), vehicle: saline 102 % of control | [16] 109 % of control | [9] 103 % of control | dose: 130.0 mg/kg/injection, schedule: Q01DX009 (ip), vehicle: saline 106 % of control | [17] 106 % of control | [11] 104 % of control | dose: 264.0 mg/kg/injection, schedule: Q04DX003 (ip), vehicle: saline 105 % of control and 118 % of control and 91 % of control

CCN(CC)CCSC(=O)C(O)(c1ccccc1)c1ccccc1
inactive: [18] 100 % of control

COc1ccc2c(c1O)C13CCN(C)C(C2)C12C=CC(=O)C3c1c(O)ccc(O)c12 (stereo not drawn)
inactive: [19] 92 % of control | [20] 97 % of control | [21] 95 % of control

O=C(Nc1ccccc1F)NC(CO)(CO)CO
inactive: [3] 97 % of control | [5] 98 % of control | [7] 95 % of control

Nc1ccc(N)c2c1C(=O)c1cccc([N+](=O)[O-])c1C2=O
inactive: [22] 101 % of control | [19] 97 % of control | [20] 95 % of control | [21] 95 % of control

COc1ccccc1NC(=S)N1CCC(CCCC2CCN(C(=S)Nc3ccccc3OC)CC2)CC1
inactive: [3] 92 % of control | [4] 91 % of control | [5] 87 % of control | [6] 89 % of control | [14] 88 % of control

COc1ccc([N+](=O)[O-])cc1NC(=O)Nc1ccccc1C(F)(F)F
inactive: [3] 88 % of control and 92 % of control | [5] 92 % of control | [7] 92 % of control

O=C1OC(c2ccc([N+](=O)[O-])cc2)=N/C1=C\C=C\c1ccccc1
inactive: [3] 98 % of control | [5] 96 % of control | [7] 103 % of control

CN(C)N1CCC2(CCC(C(C)(C)C)CC2)CC1
inactive: [22] 101 % of control | [19] 95 % of control

COc1cc(OC)c(OC)cc1CNC1CCCCCCC1
inactive: dose: 25.0 mg/kg/injection, schedule: Q04DX002 (ip), vehicle: saline 102 % of control | dose: 50.0 mg/kg/injection, schedule: Q04DX002 (ip), vehicle: saline 91 % of control | dose: 100.0 mg/kg/injection, schedule: Q04DX002 (ip), vehicle: saline 105 % of control and 115 % of control

Nc1ccnc(=S)[nH]1
inactive: [8] 92 % of control | [10] 97 % of control | dose: 250.0 mg/kg/injection, schedule: Q01DX Z (ip), vehicle: methylcellulose (MC) 101 % of control | [12] 94 % of control

O=C1c2ccccc2-c2ccc(-c3ccc4c5c(cccc35)C(=O)c3ccccc3-4)c3cccc1c23
inactive: [4] 89 % of control | [6] 95 % of control | [14] 89 % of control

O=C(Cn1ccccc1=O)c1ccccc1
inactive: dose: 100.0 mg/kg/injection, schedule: Q04DX003 (ip), vehicle: saline with Tween-80 101 % of control | dose: 400.0 mg/kg/injection, schedule: Q04DX003 (ip), vehicle: saline with Tween-80 100 % of control

O=C1NC2(CCC(O)CC2)C(O)(c2ccccc2)C12CCCCC2 (stereo not drawn)
inactive: [18] 105 % of control | dose: 150.0 mg/kg/injection, schedule: Q01DX001 (ip), vehicle: saline 86 % of control | dose: 300.0 mg/kg/injection, schedule: Q01DX001 (ip), vehicle: saline 86 % of control

CC(C)(C)c1ccc(O)c([N+](=O)[O-])c1
inactive: dose: 25.0 mg/kg/injection, schedule: Q04DX002 (ip), vehicle: Klucel (hydroxypropylcellulose) (HPC) 86 % of control | dose: 50.0 mg/kg/injection, schedule: Q04DX002 (ip), vehicle: Klucel (hydroxypropylcellulose) (HPC) 86 % of control | [15] 102 % of control and 88 % of control

CC(C)c1ccc2c(c1)CCC1C2CCCC1(C)NCc1ccccc1 (stereo not drawn)
inactive: dose: 55.0 mg/kg/injection, schedule: Q01DX Z (ip), vehicle: methylcellulose (MC) 87 % of control

CC(C)=CCC(=O)NCC(CCN1CCCCC1)(c1cccc2ccccc12)C(C)C (stereo not drawn)
inactive: dose: 12.5 mg/kg/injection, schedule: Q04DX003 (ip), vehicle: saline with Tween-80 96 % of control | dose: 25.0 mg/kg/injection, schedule: Q04DX003 (ip), vehicle: saline with Tween-80 88 % of control | dose: 50.0 mg/kg/injection, schedule: Q01DX003 (ip), vehicle: saline with Tween-80 88 % of control | dose: 50.0 mg/kg/injection, schedule: Q04DX003 (ip), vehicle: saline with Tween-80 92 % of control | [3] 90 % of control | [5] 90 % of control

CCNC(=O)CCC(N)C(=O)O (stereo not drawn)
inactive: [16] 97 % of control | [9] 97 % of control | [17] 97 % of control | [11] 101 % of control | dose: 400.0 mg/kg/injection, schedule: Q01DX009 (ip), vehicle: saline 95 % of control | [13] 101 % of control

Cc1ccc(C(=O)NO)cc1
inactive: dose: 100.0 mg/kg/injection, schedule: Q04DX003 (ip), vehicle: carboxymethylcellulose (CMC) 98 % of control | dose: 200.0 mg/kg/injection, schedule: Q04DX003 (ip), vehicle: carboxymethylcellulose (CMC) 90 % of control | dose: 400.0 mg/kg/injection, schedule: Q04DX003 (ip), vehicle: carboxymethylcellulose (CMC) 98 % of control

CCOC(=O)C(=NNc1cccc(Br)c1)C(=O)OCC
inactive: dose: 100.0 mg/kg/injection, schedule: Q01DX001 (ip), vehicle: saline 98 % of control | dose: 200.0 mg/kg/injection, schedule: Q01DX001 (ip), vehicle: saline 94 % of control | dose: 400.0 mg/kg/injection, schedule: Q01DX001 (ip), vehicle: saline 96 % of control

CCCCCCCCCCCCCCCCCC(=O)Nc1ccc(OC(=O)NC)cc1
inactive: [3] 93 % of control | [5] 88 % of control
